Experimental data taken from PMC9321663, “The DevTox Germ Layer Reporter Platform: An Assay Adaptation of the Human Pluripotent Stem Cell Test” (Toxics, 2022).
Where two headings read alike, the source gives them in different places. Starred links: 1 amine or outer side, 2 acyl side, 3 side chain; linkers in the order of their positions; H or OH if unused. Positions of bridges follow the written chain, without caps; N, C: chain ends. Non-standard residues stand in square brackets, D forms with d. Residues, ends and D or L forms follow the SMILES beside them. Chains are numbered I, II in the order given. Actinocin(9to1) = Cc1c2oc3c(C)ccc(C(=O)[*:1])c3nc-2c(C(=O)[*:2])c(N)c1=O; NMeV = CN[C@H](C(=O)O)C(C)C; Sar = CNCC(=O)O

Key:
[1] = system: SOX17 (endoderm marker) in RUES2-GLR cells; assay: DevTox GLR-Endo assay: decrease in percent SOX17-positive cells (AEID 3094, Sox17_dn); conditions: for hit call designation (in words): DevTox GLR-Endo prediction against developmental toxicant classification; for Hit Call: Table S2, SOX17-positive cells, cutoff 3*bmad; for DevTox ACC: Table S2, percent SOX17-positive cells; for HIT−CALL: tcpl plot AEID3094, COFF 20.3
Summary of the method: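 RUES2-GLR cells under endoderm differentiation exposed to test chemicals for 48 h in total, with 0.2% DMSO solvent control and SB431542 (1 µM) as developmental-toxicant control. Endpoints: decrease in total cell count and in percent SOX17-positive cells; n = 4 biological replicates minimum.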

[2] = DevTox GLR-Endo assay: decrease in total cell count, cytotoxicity (AEID 3098, CellCount_dn); conditions: human
[3] = system: RUES2-GLR cells; assay: as above; conditions: for Emax: Homo sapiens, read-out: Cell Count % Max Inhibition
[4] = system: SOX17 (endoderm marker) in RUES2-GLR cells; assay: DevTox GLR-Endo assay: increase in percent SOX17-positive cells (AEID 3093, Sox17_up); assay type: cell-based, human; conditions: for Emax: Homo sapiens; for HIT−CALL: tcpl plot AEID3093, COFF 20.3
Description: (§1) The total test chemical incubation period was 48 h.
(§2) (Supplementary Materials).

[5] = system: BRA (mesoderm marker) in RUES2-GLR cells; assay: DevTox GLR-Endo assay: increase in percent BRA-positive cells (AEID 3096, Bra_up); assay type: cell-based, human; conditions: for HIT−CALL: tcpl plot AEID3096, COFF 0.774; for MAX_MEAN: tcpl plot AEID3096, maximum mean response; for MAX_MED: tcpl plot AEID3096, maximum median response
Description: as §1, §2

[6] = system: SOX17 in H9 human ESC line; conditions: SOX17 half-maximal inhibition concentration; read-out: hPST IC50; cited from earlier work
[7] = system: H9 human ESC line; conditions: cited from earlier work
[8] = cited from earlier work; for Development Toxicant Classification: Table S2; for DT Class.: developmental toxicant classification, chemicals common with hPST; for Classification: developmental toxicant classification (Teratogen / Non-Teratogen) of reference and training chemicals, ref DOI per chemical: 10.1093/toxsci/kft239, 10.1093/toxsci/kfaa014, 10.1177/026119290203000204, 10.1038/s41598-020-59542-x
[9] = system: SOX2 (ectoderm and pluripotency marker) in RUES2-GLR cells; assay: DevTox GLR-Endo assay: increase in percent SOX2-positive cells (AEID 3095, Sox2_up); conditions: for MAX_MEAN: tcpl plot AEID3095, maximum mean response; for MAX_MED: tcpl plot AEID3095, maximum median response; for AC50 / Emax: Homo sapiens; for AC50: read-out: ga (winning model); for Emax: read-out: tp (winning model)
[10] = Homo sapiens, 48 h, read-out: DevTox-GLR Endo AC50 (µM), SOX17 half-maximal activity concentration, 48 h exposure
[11] = Homo sapiens, read-out: DevTox % Max Inhibition
[12] = Homo sapiens, read-out: MAX_MEAN
[13] = Homo sapiens, read-out: MAX_MED
[14] = Homo sapiens, read-out: ga (winning model), tcpl plot AEID3094, gain parameter of winning curve fit (log concentration, µM axis), hit calls only (converted)
[15] = Homo sapiens, read-out: tp (winning model)
[16] = read-out: DevTox-GLR Endo AC50, SOX17 half-maximal activity concentration, 48 h exposure
[17] = RUES2-GLR cells under directed endoderm differentiation
[18] = tcpl plot AEID3093, maximum mean response, read-out: MAX_MEAN
[19] = tcpl plot AEID3093, maximum median response, read-out: MAX_MED
[20] = cytotoxicity half-maximal concentration
[21] = Homo sapiens, 48 h, read-out: DevTox-GLR Endo AC50 (µM)
[22] = Homo sapiens, read-out: ga (winning model)

SMILES	AC50 [1, 10] [µM]	Emax [1, 11] [%]	Emax [1, 12] [%]	Emax [1, 13] [%]	Emax [1, 15] [%]	Hit Call [1]	DevTox ACC ([1]; 48 h exposure) [µM]	HIT−CALL [1]	Emax [3] [%]	Emax [4, 18] [%]	Emax [4, 19] [%]	HIT−CALL [4]	IC50 [6] [µM]	hPST TC50 [7, 20] [µM]	hPST TC50 ([7]; hPST cytotoxicity) [µM]	Development Toxicant Classification [8]	DT Class. [8]	MAX_MEAN [9] [Percent Activity]	MAX_MED [9] [Percent Activity]	Classification [8]	other results
Oc1cc(O)c2c(c1)O[C@H](c1ccc(O)c(O)c1)[C@@H](O)C2 [Cianidanol]	93	39.8	39.3	39.8	39.4	Positive	93.5186	1	29.6	6.18	7.45	0	97	200	200	Negative	Neg	0.447	0.456	–	SOX17 ACC relative to cytotoxic concentration (in words) [1]: below cytotoxic concentrations; hit call designation (in words) [1]: false positive; AC50 [1, 14]: 93.3 µM; AC50 [1, 16]: 92.9 µM; CC50 at 48 h [2, 17]: 194 µM; Cell Count ACC ([3]; human, 48 h): 180.189 µM; HIT−CALL [5]: 0; MAX_MEAN [5]: 1.32 Percent Activity; MAX_MED [5]: 1.37 Percent Activity
C[C@](N)(Cc1ccc(O)c(O)c1)C(=O)O [Methyldopa]	113	23.5	19.9	23.5	30.9	Positive	217.84	1	10.2	13.8	12.9	0	272	462	462	Negative	Neg	4.03	0.534	Non-Teratogen	hit call designation (in words) [1]: false positive; AC50 [1, 14]: 112 µM; AC50 [1, 16]: 113 µM; CC50 at 48 h [2, 17]: > 200 µM; Cell Count ACC ([3]; human, 48 h): >200 µM; HIT−CALL [5]: 0; MAX_MEAN [5]: 0.823 Percent Activity; MAX_MED [5]: 0.851 Percent Activity
NC(=O)c1ccc(N)nc1 [6-Aminonicotinamide, 6−aminopyridine−3−carboxamide]	–	101	101	101	101	Positive	12.5605	1	89.9	2.7	3	0	7	8	8	Positive	Pos	4.77	4.39	Teratogen	AC50 [1, 21]: 16.6 µM; AC50 [1, 22]: 16.6 µM; SOX17 ACC relative to cytotoxic concentration (in words) ([1]; training set, ACC versus cell count ACC): below cytotoxic concentrations; CC50 [2]: 23.9 µM; Cell Count ACC ([3]; Table S2, 48 h exposure): 20.3443 µM; AC50 [9]: 309 µM; Emax [9]: 9.6%
Cc1c2oc3c(C)ccc(C(=O)N[C@@H]4C(=O)N[C@H](C(C)C)C(=O)N5CCC[C@H]5C(=O)N(C)CC(=O)N(C)[C@@H](C(C)C)C(=O)O[C@@H]4C)c3nc-2c(C(=O)N[C@@H]2C(=O)N[C@H](C(C)C)C(=O)N3CCC[C@H]3C(=O)N(C)CC(=O)N(C)[C@@H](C(C)C)C(=O)O[C@@H]2C)c(N)c1=O [Actinomycin D] (I: T[dV]P[Sar][NMeV] / II: T[dV]P[Sar][NMeV]; ester I:1-I:C, II:1-II:C; linker I:N-II:N via Actinocin(9to1))	–	101	102	101	101	Positive	2.881e-05	1	96	–	–	0	< 0.01	<0.01	< 0.01	Positive	Pos	20.2	20.2	Teratogen	SOX17 ACC relative to cytotoxic concentration (in words) [1]: below cytotoxic concentrations; AC50 [1, 21]: 3.7e-05 µM; AC50 [1, 22]: 3.63e-05 µM; CC50 [2]: 0.00048 µM; Cell Count ACC ([3]; Table S2, 48 h exposure): 0.0003574 µM; Emax ([4]; read-out: MAX_MEAN): 6.35%; Emax ([4]; read-out: MAX_MED): 3.62%; AC50 [9]: 0.1 µM; Emax [9]: 24%
CCN(CC)CCNC(=O)c1c(C)[nH]c(/C=C2\C(=O)Nc3ccc(F)cc32)c1C [Sunitinib]	0.63	102	102	102	101	Positive	0.5184	1	97.7	0.538	0.596	0	2.8	3.6	3.6	Positive	Pos	3	3.23	Teratogen	SOX17 ACC relative to cytotoxic concentration (in words) [1]: below cytotoxic concentrations; AC50 [1, 14]: 0.628 µM; CC50 at 48 h [2, 17]: 1.26 µM; Cell Count ACC ([3]; Table S2, 48 h exposure): 0.6087 µM; AC50 [9]: 5.41 µM; Emax [9]: 6.74%
CC1(C)S[C@@H]2[C@H](NC(=O)Cc3ccccc3)C(=O)N2[C@H]1C(=O)O [Penicillin G]	> 200	10.3	12.2	10.3	–	Negative	>200	0	13.3	13.2	12.4	0	> 400	>400	> 400	–	–	2.17	0.88	–	CC50 at 48 h [2]: > 200 µM; Cell Count ACC ([3]; human, 48 h): >200 µM; HIT−CALL [5]: 0; MAX_MEAN [5]: 0.857 Percent Activity; MAX_MED [5]: 0.92 Percent Activity
COc1cc2c(Nc3ccc(Br)cc3F)ncnc2cc1OCC1CCN(C)CC1 [Vandetanib]	4.9	102	102	102	101	Positive	4.123	1	98.3	7.33	9.78	0	3.5	4.4	4.4	Positive	Pos	10.9	10.8	Teratogen	AC50 [1, 14]: 4.91 µM; CC50 at 48 h [2, 17]: 4.32 µM; Cell Count ACC ([3]; Table S2, 48 h exposure): 2.124 µM; AC50 [9]: 7.23 µM; Emax [9]: 23.1%
Cc1nc(Nc2ncc(C(=O)Nc3c(C)cccc3Cl)s2)cc(N2CCN(CCO)CC2)n1 [Dasatinib]	0.72	102	102	102	102	Positive	0.3299	1	96	5.98	3.77	0	< 1	<1	< 1	Positive	Pos	63.7	64.4	Teratogen	AC50 [1, 14]: 0.721 µM; CC50 at 48 h [2]: 0.05 µM; Cell Count ACC ([3]; human, 48 h): 0.005325 µM; AC50 [9]: 148 µM; Emax [9]: 85.8%
